Assay [1] has as its target T1, Francisella tularensis GyrB (ATP binding domain) (Francisella tularensis subsp. tularensis, UniProt Q5NHE7). Nature of the assay: biochemical.
Assay [2] concerns the target E. coli gyrase A2B2 heterotetramer (Escherichia coli, UniProt P0AES6). In words: Gyrase activity. Type of assay: biochemical. The conditions noted are these: 50 μM compound, 0.5 μg relaxed pHOT1 DNA, 1 h 37 °C.
Assay [3] concerns the target T1, Francisella tularensis GyrB (ATP binding domain). Nature of the assay: biochemical. The conditions noted are these: 1 h, read-out: decrease of binding of Novo-TRX to GyrB.

As usually defined, the IC50 is the concentration that gives 50% inhibition.

T1 sequence (Q5NHE7 1-805): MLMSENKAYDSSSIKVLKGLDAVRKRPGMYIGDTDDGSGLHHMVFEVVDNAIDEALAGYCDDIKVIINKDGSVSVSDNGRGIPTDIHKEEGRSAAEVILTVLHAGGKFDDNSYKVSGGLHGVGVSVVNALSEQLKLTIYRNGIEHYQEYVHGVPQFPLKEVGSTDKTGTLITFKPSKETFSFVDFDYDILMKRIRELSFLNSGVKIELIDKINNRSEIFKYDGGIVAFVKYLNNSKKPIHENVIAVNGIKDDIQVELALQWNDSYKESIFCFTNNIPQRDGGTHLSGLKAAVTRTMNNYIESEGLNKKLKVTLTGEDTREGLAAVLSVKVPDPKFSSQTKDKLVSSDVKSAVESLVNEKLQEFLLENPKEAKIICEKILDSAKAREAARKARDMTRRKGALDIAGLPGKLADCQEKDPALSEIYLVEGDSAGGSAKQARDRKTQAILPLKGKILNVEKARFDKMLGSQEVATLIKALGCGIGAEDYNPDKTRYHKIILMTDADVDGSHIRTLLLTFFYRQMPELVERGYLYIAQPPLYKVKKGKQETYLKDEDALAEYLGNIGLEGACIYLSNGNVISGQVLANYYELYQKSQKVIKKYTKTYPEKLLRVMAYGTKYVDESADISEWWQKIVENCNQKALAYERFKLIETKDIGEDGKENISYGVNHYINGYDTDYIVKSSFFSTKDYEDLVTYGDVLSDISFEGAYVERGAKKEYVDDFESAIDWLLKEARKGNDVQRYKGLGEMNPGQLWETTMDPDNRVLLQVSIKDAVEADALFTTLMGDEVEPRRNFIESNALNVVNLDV

On to `CCNC(=O)Nc1nc2cc(-c3cccnc3)cc(-c3ccccn3)c2[nH]1` [Vertex-13, N-ethyl-N′-[7-(2-pyridinyl)-5-(3-pyridinyl)-1H-benzimidazol-2-yl]-urea], for which, in assay [1], the IC50 came out at 393 nM and the “potency relative to novobiocin in the F. tularensis system (fold less potent)” value was “approximately 10 fold”.

In the case of `COc1cccc2c1C(=O)c1c(O)c3c(c(O)c1C2=O)C[C@@](O)(C(C)=O)C[C@@H]3O[C@H]1C[C@H](N)[C@H](O)[C@H](C)O1` [daunorubicin], the half-inhibitory concentration (IC50) in assay [1] came out at 1460 nM. Besides, the “inhibition of supercoiling of relaxed DNA” value (shortened to “inhibition … of relaxed DNA”) in assay [2] is recorded as “less clear”.

As to `COc1cccc2c1C(=O)c1c(O)c3c(c(O)c1C2=O)C[C@@](O)(C(=O)CO)C[C@@H]3O[C@H]1C[C@H](N)[C@H](O)[C@H](C)O1` [doxorubicin], the IC50 in assay [1] is 310 nM. For the same compound, the “inhibition … of relaxed DNA” value in assay [2] was “inhibit supercoiling to the level of the no-gyrase control”.

Regarding `COc1cccc2c1C(=O)c1c(O)c3c(c(O)c1C2=O)C[C@@](O)(C(=O)CO)C[C@@H]3O[C@H]1C[C@H](N)[C@@H](O)[C@H](C)O1` [epirubicin], in assay [1], the IC50 amounted to 1270 nM. Besides, in assay [2], the “inhibition … of relaxed DNA” value is “inhibit supercoiling to the level of the no-gyrase control”.

With `CC(=O)[C@]1(O)Cc2c(O)c3c(c(O)c2[C@@H](O[C@H]2C[C@H](N)[C@H](O)[C@H](C)O2)C1)C(=O)c1ccccc1C3=O` [idarubicin], the IC50 in assay [1] came to 1580 nM. The “inhibition … of relaxed DNA” value in assay [2] is “less clear”.

For the compound `CO[C@@H]1[C@@H](OC(N)=O)[C@@H](O)[C@H](Oc2ccc3c(O)c(NC(=O)c4ccc(O)c(CC=C(C)C)c4)c(=O)oc3c2C)OC1(C)C` [novobiocin], in assay [3], the inhibition at 10 µM is greater than 40%.
